The values below come from patent US20070060534A1, “Anthracycline analogs” (Threshold Pharmaceuticals, Inc., priority 2005, published 2007).

The experiment relates to H460 cells. Kind of experiment: Cytotoxicity: anti-proliferation activity on H460 cells, multi-well Alamar Blue based assay. In kind it is cell-based. The procedure: Cell growth in the presence and absence of the test compound was compared following a multi-well Alamar Blue based assay, and measured by a fluorescence plate reader at 550 nm excitation and 590 nm emission (see Biosource International Inc., Tech Application Notes, Use of Alamar Blue in the measurement of Cell Viability and Toxicity, Determining IC50). H460 cells (ATCC HTB-177 (NCl—H40), 4,000 cells/well/200 μl) were seeded in a 96 well plate in RPMI medium (Invitrogen Corporation, Carlsbad, Calif.). After 24 hours, these plates were divided into 3 groups—Control group, 2 h treatment group and 3 day treatment group. A test compound was added in a range of concentration to each plate in the treatment groups (2 h and 3 day). In the 2 h treatment group, after 2 h, the H460 cells were rinsed to remove the test compound, incubated for 3 days, and stained with AlamarBlue. The cells in the 3-day treatment group were incubated along with the test compound for 3 days, followed by staining with AlamarBlue. In the Control group, AlamarBlue was added to the plate at (i) day 0 and (ii) day 3 and the fluorescence emission measured to establish the control reading. In all the groups, the capacity of the cells to proliferate was measured 6 hours after addition of AlamarBlue by a fluorescence plate reader at 550 nm excitation and 590 nm emission.
On the technique in general: The colour change of resazurin is a common sign of viable cells or microbes.

Where [1] appears, read: Homo sapiens, NCI-H460, 2 h, read-out: GI90.
The mark [2] stands for this setting: Homo sapiens, NCI-H460, 72 h, read-out: GI50 (concentration required to inhibit cellular proliferation by 50%).
Setting [3] is: Homo sapiens, NCI-H460, 72 h, read-out: GI90.
Setting [4] is: Homo sapiens, NCI-H460, read-out: GI50 (concentration required to inhibit cellular proliferation by 50%).
The mark [5] stands for this setting: Homo sapiens, NCI-H460, 72 h, H460 cells, 3 day incubation with compound, AlamarBlue, read-out: GI50 (concentration required to inhibit cellular proliferation by 50%).
[6] abbreviates: Homo sapiens, NCI-H460, 72 h, H460 cells, 3 day incubation with compound, AlamarBlue, read-out: GI90 (the source's name).
[7] abbreviates: Homo sapiens, NCI-H460, H460 cells, 2 h treatment, rinsed, then incubated for 3 days, AlamarBlue, read-out: GI50 (concentration required to inhibit cellular proliferation by 50%).
Setting [8] is: Homo sapiens, NCI-H460, H460 cells, 2 h treatment, rinsed, then incubated for 3 days, AlamarBlue, read-out: GI90 (the source's name).
Setting [9] is: read-out: GI50 (concentration required to inhibit cellular proliferation by 50%).
Setting [10] is: read-out: GI90 (the source's name).

Structures are written as SMILES. Where “and” joins values, the source holds several entries; their conditions need not be identical. Equal entries are not always repeated. Where two headings read alike, the source gives them in different places.

For `COc1cccc2c1C(=O)c1c(O)c3c(c(O)c1C2=O)C[C@@](O)(C(C)=O)C[C@@H]3O[C@H]1CC(N2CCN(C(=O)CC(C)(C)C)CC2)C(O)[C@H](C)O1` (some centres unmarked) [Compound 48], the IC90 reads like this: under setting [1], 398 nM; under setting [3], 200 nM. Further, the GI50 under setting [2] was determined as 63.1 nM and the GI50 under setting [4] came out at 141 nM.

For the molecule `COc1cccc2c1C(=O)c1c(O)c3c(c(O)c1C2=O)C[C@]1(O)C[C@@H]3O[C@H]2CC([C@H](O)[C@H](C)O2)N2CCOCC2OCC1=O` (some centres unmarked) [Compound 58], the GI50 by setting is: under setting [5], 0.14 nM; under setting [7], 0.3 nM. Moreover, the IC90 stood at 0.6 nM under setting [6] and 1 nM under setting [8].

As to `COc1cccc2c1C(=O)c1c(O)c3c(c(O)c1C2=O)C[C@@](O)(C(O)CO)C[C@@H]3O[C@H]1CC(N2CCN(C(=O)OC(C)(C)C)CC2C#N)[C@H](O)[C@H](C)O1` (some centres unmarked) [Compound 13], the IC90 came out at 50.1 nM under setting [1] and 20 nM under setting [3]. Besides, the GI50 stood at 4 nM under setting [2] and 10 nM under setting [4].

With `COc1cccc2c1C(=O)c1c(O)c3c(c(O)c1C2=O)C[C@@](O)(C(C)=O)C[C@@H]3O[C@H]1CC(N2CCN(C(=O)OCc3cnc([N+](=O)[O-])n3C)CC2C#N)C(O)[C@H](C)O1` (some centres unmarked) [Compound 3], the GI50 under setting [9] is 2.5 nM and 1.3 nM. Besides, under setting [10], the IC90 was 7.90 nM and 4.00 nM.

Consider `COCCOC(=O)N1CCN2C(C1)OC1C2C[C@H](O[C@H]2C[C@](O)(C(=O)CO)Cc3c(O)c4c(c(O)c32)C(=O)c2c(OC)cccc2C4=O)O[C@@H]1C` (some centres unmarked) [Compound 50], for which the GI50 reads like this: under setting [5], 0.16 nM; under setting [7], 0.13 nM. For the same molecule, the IC90 was 0.32 nM under setting [6] and 0.4 nM under setting [8].

In the case of `COc1cccc2c1C(=O)c1c(O)c3c(c(O)c1C2=O)C[C@@](O)(C(C)=O)C[C@@H]3O[C@H]1CC(NC(C#N)COCCCl)C(O)[C@H](C)O1` (some centres unmarked) [Compound 53], the GI50 by setting is: under setting [2], 2.5 nM; under setting [4], 15.8 nM.

As for `COc1cccc2c1C(=O)c1c(O)c3c(c(O)c1C2=O)CC(O)(C(C)=O)CC3OC1CC(N2CCN(C(C)=O)CC2)C(O)C(C)O1` (centres unmarked) [Compound 46], the IC90 under setting [10] is 158.50 nM and 100.00 nM.

Consider `COc1cccc2c1C(=O)c1c(O)c3c(c(O)c1C2=O)C[C@@](O)(C(C)=O)C[C@@H]3O[C@H]1CC(N2CCN(C(=O)OCC(C)C)CC2)C(O)[C@H](C)O1` (some centres unmarked) [Compound 47], for which the IC90 came out at 398 nM under setting [1] and 100 nM under setting [3]. Further, the GI50 was determined as 20 nM under setting [2] and 126 nM under setting [4].

On to `COc1cccc2c1C(=O)c1c(O)c3c(c(O)c1C2=O)C[C@@](O)(C(C)=O)C[C@@H]3O[C@H]1CC(N2CCOCC2C#N)C(OC(=O)OCC(C)C)[C@H](C)O1` (some centres unmarked) [Compound 57], for which the IC90 by setting is: under setting [1], 316 nM; under setting [3], 10 nM. For the same molecule, the GI50 reads like this: under setting [2], 1.58 nM; under setting [4], 125 nM.

As for `COc1cccc2c1C(=O)c1c(O)c3c(c(O)c1C2=O)C[C@@](O)(C(C)=O)C[C@@H]3O[C@@H]1CC(N2CCN(C(=O)OCc3ccc([N+](=O)[O-])o3)CC2C#N)C(O)[C@H](C)O1` (some centres unmarked) [Compound 5], the GI50 under setting [5] is 1 nM and the GI50 under setting [7] was found to be 3.2 nM. In addition, the IC90 amounted to 4 nM under setting [6] and 10 nM under setting [8].

For `COc1cccc2c1C(=O)c1c(O)c3c(c(O)c1C2=O)C[C@@](O)(C(=O)COC(=O)OCc1cnc([N+](=O)[O-])n1C)C[C@@H]3O[C@H]1CC(N2CCOCC2C#N)[C@H](O)[C@H](C)O1` (some centres unmarked) [Compound 60], the IC90 was 2.5 nM under setting [1] and 0.2 nM under setting [3]. Also, the GI50 is 0.1 nM under setting [2] and 0.79 nM under setting [4].

`COc1cccc2c1C(=O)c1c(O)c3c(c(O)c1C2=O)CC(O)(C(C)=O)CC3OC1CC(N2CCN(C(=O)OCC3c4ccccc4-c4ccccc43)CC2)C(O)C(C)O1` (centres unmarked) [Compound 44]: the IC90 under setting [10] was found to be 501 nM.

For the molecule `COc1cccc2c1C(=O)c1c(O)c3c(c(O)c1C2=O)C[C@@](O)(C(C)=O)C[C@@H]3O[C@H]1CC(NC(C#N)COCCOS(=O)(=O)c2ccc(C)cc2)C(O)[C@H](C)O1` (some centres unmarked) [Compound 52], the GI50 under setting [4] came out at 0.3 nM.

For the molecule `COc1cccc2c1C(=O)c1c(O)c3c(c(O)c1C2=O)C[C@@](O)(C(C)=O)C[C@@H]3O[C@H]1CC2C(OC3CN(C(=O)OCc4cnc([N+](=O)[O-])n4C)CCN32)[C@H](C)O1` (some centres unmarked) [Compound 28], the IC90 reads like this: under setting [1], 0.1 nM; under setting [3], 1.26 nM. In addition, the GI50 by setting is: under setting [2], 0.4 nM; under setting [4], 0.03 nM.

For the molecule `COc1cccc2c1C(=O)c1c(O)c3c(c(O)c1C2=O)C[C@@](O)(C(C)=O)C[C@@H]3O[C@H]1CC(N2CCOCC2O)C(O)[C@H](C)O1` (some centres unmarked) [Compound 59], the IC90 under setting [1] turned out to be 1000 nM and the IC90 under setting [3] was determined as 200 nM. Moreover, the GI50 runs as follows: under setting [2], 50 nM; under setting [4], 200 nM.

Consider `COc1cccc2c1C(=O)c1c(O)c3c(c(O)c1C2=O)C[C@@](O)(C(C)=O)C[C@@H]3O[C@H]1CC(NC(COCCOS(=O)(=O)c2ccc(C)cc2)OC)C(O)[C@H](C)O1` (some centres unmarked) [Compound 51], for which the GI50 under setting [4] amounted to 2.5 nM.

As to `COc1cccc2c1C(=O)c1c(O)c3c(c(O)c1C2=O)C[C@@](O)(C(C)=O)C[C@@H]3O[C@H]1CC(N2CCN(C(=O)OCc3cnc([N+](=O)[O-])n3C)CC2)C(O)[C@H](C)O1` (some centres unmarked) [Compound 33], the GI50 under setting [9] is 20 nM and 10 nM. Also, under setting [10], the IC90 is 79 nM and 50 nM.

As for `COc1cccc2c1C(=O)c1c(O)c3c(c(O)c1C2=O)C[C@@](O)(C(C)=O)C[C@@H]3O[C@H]1CC(N2CCN(C(=O)C(F)(F)F)CC2)C(O)[C@H](C)O1` (some centres unmarked) [Compound 45], the IC90 under setting [10] is 1000 nM and 630 nM.

Regarding `COc1cccc2c1C(=O)c1c(O)c3c(c(O)c1C2=O)C[C@@](O)(C(O)CO)C[C@@H]3O[C@H]1CC(N2CCN(C(=O)OC(C)(C)C)CC2)[C@H](O)[C@H](C)O1` (some centres unmarked) [Compound 49], the IC90 turned out to be 158 nM under setting [1] and 100 nM under setting [3]. The GI50 under setting [2] is 20 nM and the GI50 under setting [4] was 63.1 nM.

`COCCOC(=O)N1CCN(C2C[C@H](O[C@H]3C[C@](O)(C(C)=O)Cc4c(O)c5c(c(O)c43)C(=O)c3c(OC)cccc3C5=O)O[C@H](C)C2O)C(C#N)C1` (some centres unmarked) [Compound 14]: the IC90 was determined as 0.4 nM under setting [1] and 0.63 nM under setting [3]. Further, the GI50 by setting is: under setting [2], 0.2 nM; under setting [4], 0.2 nM.
